Test [1] concerns the target T1, Histamine H3 receptor (Cavia porcellus, UniProt Q9JI35). The experiment in a line: ileal longitudinal muscle, myenteric plexus functional assay (rightward shift of R-(α)-methylhistamine E/[A] curves, Schild). Format: cell-based. The arrangement: the longitudinal muscle layer and adhering myenteric plexus was teased away; from tissue; host or cells: guinea pig ileal longitudinal muscle with myenteric plexus (organ bath). The following applies: guinea pig ileum longitudinal muscle myenteric plexus, electrically stimulated; antagonism of R-(α)-methylhistamine; typical variance ±0.15 log units; read-out: pKB (functional assay) - ileum (converted). As for the experimental part:
The biological activity of the compounds of the examples was measured using the ileal longitudinal muscle, myenteric plexus assay described by Paton and Aboo Zar (J. Physiol. 1968, 194, 13-33). Male Dunkin-Hartley guinea pigs (250-300 g) were employed. Briefly, a 50 cm portion of ileum proximal to the caecum was removed, after discarding the terminal 20 cm. Ileal segments (3 cm) were cleaned by passing Krebs-Henseleit buffer containing 3 μM mepyramine gently through the ileum using a Pasteur pipette (size: 13.8 cm length, 0.65 cm diameter). To avoid unnecessary damage to the tissue, Krebs-Henseleit buffer was passed through the ileal segment, while it was lying horizontally on a petri dish. Therefore, the ileum was not over-distended and the buffer flowed through with ease. Each segment was then passed over a Pasteur pipette and the longitudinal muscle layer and adhering myenteric plexus was teased away using moist cotton wool, by stroking tangentially away from the mesenteric attachment. The tissues were suspended in 20 ml organ baths containing Krebs-Henseleit buffer at 37±1° C. and gassed with 95% CO2/5% O2. The tissues were ligated to two parallel stainless steel wires, situated between two platinum electrodes (0.76 cm length, 0.06 cm diameter). All measurements were recorded isometrically (Grass FTO3 transducer). Following an initial loading tension of 1 g, the tissues were stimulated with electrical pulses at a frequency of 0.1 Hz and a pulse duration of 0.5 msec, as described by Kosterlitz & Watt (Br. J. Pharmacol. 1968, 266-276). Initially, the tissues were stimulated at supramaximal (1.3 fold times maximal) voltage for a period of 30 min and then the tissues were washed and re-stimulated. A “sighter dose” of the selective histamine H3-receptor agonist, R-(α)-methylhistamine (0.3 μM) (Arrang et al. Nature, 1987, 117-123), was administered. Upon generation of response, the “sighter dose” was removed from the tissues by “washout” (6 washes over 60 min) and during this period the electrical stimulation was switched off. The tissues were then re-stimulated and allowed to stabilise prior to the addition of drug treatments, which were allocated on a randomised block basis to the organ baths. Following the incubation period, a single cumulative E/[A] curve was obtained. The experimental E/[A] curve data was expressed as the percentage inhibition of the peak height of electrically-stimulated contraction. Antagonist affinity values were calculated from the degree of rightward shift of the R-(α)-methylhistamine E/[A] curves using Schild's methods (Arunlakshana & Schild Br. J. Pharmacol. 1959, 48-58). Typical variance in this assay is ±0.15 log units.

Test [2] concerns the target T1, Histamine H3 receptor. Briefly: Histamine H3 radioligand binding assay, guinea pig cortex ([3H]-R-α-methylhistamine). More on the design: The cortex was dissected, weighed and homogenised in ice-cold 20 mM Hepes-NaOH buffer; from tissue; host or cells: guinea pig cerebral cortex membranes. As for the experimental part:
Histamine H3 Radioligand Binding Assay—Guinea Pig Cortex
Male Dunkin Hartley guinea pigs (200-300 g) were used. The whole brain was removed and immediately placed in ice-cold 20 mM Hepes-NaOH buffer (pH7.4 at 21±3° C.). The cortex was dissected, weighed and homogenised in ice-cold 20 mM Hepes-NaOH buffer (pH7.4 at 21±3° C.) (50 ml/guinea-pig cortex) using a polytron (Kinematica AG; PT-DA 3020/2TS, 3×3 s). The homogenate was centrifuged at 100×g for 5 min and the supernatants pooled and stored at 4° C. The pellets were rehomogenised in fresh ice-cold buffer (80 ml) and recentrifuged (100×g for 5 min). The supernatants were pooled and pellets rehomogenised and recentrifuged (100×g for 5 min). All supernatants were pooled and centrifuged at 39,800×g for 12 min at 4° C. The final pellet was resuspended in 20 mM Hepes-NaOH buffer (pH7.4 at 21±3° C.) to a tissue concentration of 7.5 mg.ml^−1, using a teflon-in-glass homogeniser.
Incubation Conditions and Data Analysis
These were essentially identical to those used for the guinea pig ileum myenteric plexus assay described above, except that the final assay concentration of [^3H]-R-α-methylhistamine was 0.1 nM. Typical variance in this assay is ±0.12 log units.

[3] abbreviates: guinea pig cortex membranes, [3H]-R-α-methylhistamine 0.1 nM, typical variance ±0.12 log units, read-out: pKI (binding assay) - cortex (converted).

Structures are written as SMILES. Like-named read-outs stand apart in the source and are kept apart here.

T1 sequence (Q9JI35 whole entry): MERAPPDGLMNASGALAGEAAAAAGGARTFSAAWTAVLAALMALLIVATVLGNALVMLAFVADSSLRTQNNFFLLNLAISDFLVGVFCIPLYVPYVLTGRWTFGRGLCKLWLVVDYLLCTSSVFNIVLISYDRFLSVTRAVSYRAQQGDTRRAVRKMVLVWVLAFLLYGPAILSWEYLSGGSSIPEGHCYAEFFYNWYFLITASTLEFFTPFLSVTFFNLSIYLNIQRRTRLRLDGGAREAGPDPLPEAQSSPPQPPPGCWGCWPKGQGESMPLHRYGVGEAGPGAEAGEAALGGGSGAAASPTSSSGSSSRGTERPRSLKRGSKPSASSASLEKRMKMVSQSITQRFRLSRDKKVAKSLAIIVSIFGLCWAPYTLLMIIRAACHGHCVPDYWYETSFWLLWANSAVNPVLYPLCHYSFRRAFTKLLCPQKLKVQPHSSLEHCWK

Take `O=S(=O)(CCCCCc1c[nH]cn1)NCc1cccc(Cl)c1` [Example 21, N-(3-Chlorobenzyl)-5-(1H-imidazol-4-yl)-1-pentanesulfonamide]: the Kb in test [1] was 58.9 nM. For the same molecule, the Ki in test [2] (setting [3]) was 12 nM.
With `O=S(=O)(CC(O)CCCc1c[nH]cn1)NCc1cccc(Cl)c1` (centres unmarked) [Example 22, N-(3-Chlorobenzyl)-2-hydroxy-5-(1H-imidazol-4-yl)-1-pentanesulfonamide], the Kb in test [1] was 79.4 nM. In addition, the Ki in test [2] (setting [3]) is 28.8 nM.
On to `O=S(=O)(CCCCc1c[nH]cn1)CCc1ccccc1` [Example 23, [4-(1H-Imidazol-4-yl)butyl]phenethyl sulfone], for which the Kb in test [1] was 214 nM. Further, the Ki in test [2] is 47.9 nM.
As to `O=S(=O)(CCCCc1c[nH]cn1)CCc1ccc(Cl)cc1` [Example 24, [4-(1H-Imidazol-4-yl)butyl] 4-chlorophenethyl sulfone], in test [1], the Kb is 10.7 nM. Besides, the Ki in test [2] (setting [3]) was 5.62 nM.
For `O=S(=O)(CCCCc1c[nH]cn1)Cc1ccc(Cl)cc1` [Example 25, [4-(1H-Imidazol-4-yl)butyl]-4-chlorobenzyl sulfone] the same measures were 30.2 nM and 18.6 nM.
For `O=S(=O)(CCCCCc1c[nH]cn1)NCc1ccc(F)cc1` [Example 28, N-(4-Fluorobenzyl)-5-(1H-imidazol-4-yl)-1-pentanesulfonamide] the same measures were 19.1 nM and 7.08 nM.
In the case of `Cc1ccc(CNS(=O)(=O)CCCCCc2c[nH]cn2)cc1` [Example 29, N-(4-Methylbenzyl)-5-(1H-imidazol-4-yl)-1-pentanesulfonamide], the Kb in test [1] was 25.7 nM. The Ki in test [2] (setting [3]) is 6.17 nM.
Turning to `O=S(=O)(CCCCCc1c[nH]cn1)NCc1ccc(C(F)(F)F)cc1` [Example 30, N-(4-Trifluoromethylbenzyl)-5-(1H-imidazol-4-yl)-1-pentanesulfonamide], the Kb in test [1] was 9.33 nM. For the same molecule, the Ki in test [2] (setting [3]) was 1.51 nM.
For `O=S(=O)(CCCCCc1c[nH]cn1)NCC12CC3CC(CC(C3)C1)C2` [Example 31, N-(1-Adamantylmethyl)-5-(1H-imidazol-4-yl)-1-pentanesulfonamide] the same measures were 174 nM and 186 nM.
Regarding `O=S(=O)(/C=C/CCCc1c[nH]cn1)NCc1ccc(Cl)cc1` [Example 32, (E)-N-(4-Chlorobenzyl)-5-(1H-imidazol-4-yl)-1-pent-1-enesulfonamide], in test [1], the Kb is 25.1 nM. Further, in test [2] (setting [3]), the Ki is 5.89 nM.
For `O=S(=O)(C/C=C/CCc1c[nH]cn1)NCc1ccc(Cl)cc1` [Example 33, (E)-N-(4-Chlorobenzyl)-5-(1H-imidazol-4-yl)-1-pent-2-enesulfonamide] the same measures were 4.68 nM and 0.851 nM.
As to `CN(Cc1ccc(Cl)cc1)S(=O)(=O)CCCCCc1c[nH]cn1` [Example 34, N-(4-Chlorobenzyl)-N-methyl-5-(1H-imidazol-4-yl)-1-pentanesulfonamide], in test [1], the Kb is 17.4 nM. In addition, the Ki in test [2] (setting [3]) is 10.2 nM.
Consider `NCCCN(Cc1ccc(Cl)cc1)S(=O)(=O)CCCCCc1c[nH]cn1` [Example 35, N-(4-Chlorobenzyl)-N-(3-aminopropyl)-5-(1H-imidazol-4-yl)-1-pentanesulfonamide], for which the Kb in test [1] was 151 nM. For the same molecule, the Ki in test [2] (setting [3]) was 18.2 nM.
For `O=S(=O)(CCCCCc1c[nH]cn1)N(Cc1ccccc1)Cc1ccc(Cl)cc1` [Example 36, N-Benzyl-N-(4-chlorobenzyl)-5-(1H-imidazol-4-yl)-1-pentanesulfonamide] the same measures were 1550 nM and 200 nM.
As for `O=[N+]([O-])CC(CCCc1c[nH]cn1)CS(=O)(=O)NCc1ccc(Cl)cc1` (centres unmarked) [Example 37, N-(4-Chlorobenzyl)-2-nitromethyl-5-(1H-imidazol-4-yl)-1-pentanesulfonamide], the Kb in test [1] is 20.4 nM. Also, in test [2] (setting [3]), the Ki is 6.61 nM.
For `NCC(CCCc1c[nH]cn1)CS(=O)(=O)NCc1ccc(Cl)cc1` (centres unmarked) [Example 38, 2-Aminomethyl-N-(4-chlorobenzyl)-5-(1H-imidazol-4-yl)-1-pentanesulfonamide] the same measures were 12.3 nM and 1.32 nM.
For `CNC(CCCc1c[nH]cn1)CS(=O)(=O)NCc1ccc(Cl)cc1` (centres unmarked) [Example 39, N-(4-Chlorobenzyl)-2-methylamino-5-(1H-imidazol-4-yl)-1-pentanesulfonamide] the same measures were 24.5 nM and 2.95 nM.
In the case of `O=S(=O)(/C=C/C=C/c1c[nH]cn1)NCc1ccc(Cl)cc1` [Example 41, (E,E)-N-(4-Chlorobenzyl)-4-(1H-imidazol-4-yl)-1-but-1,3-dienesulfonamide], in test [1], the Kb is 2630 nM. Further, in test [2] (setting [3]), the Ki is 1580 nM.
On to `O=S1(=O)C2C=CC(c3c[nH]cn3)CC2CN1Cc1ccc(Cl)cc1` (centres unmarked) [Example 42, 2-(4-Chlorohenzyl)-5-(1H-imidazol-4-yl)-2,3,3a, 4,5,7a-hexahydro-benzo[d]isothiazole 1,1-dioxide], for which, in test [1], the Kb was 2090 nM. Moreover, in test [2] (setting [3]), the Ki is 1230 nM.
